Measurements from US12150995B2, “IRAK degraders and uses thereof” (Kymera Therapeutics, Inc., priority 2020, dated 2024).

Biological target: T1, IRAK4 (Homo sapiens, UniProt Q9NWZ3)
T1 construct: endogenous in cells; host or cells: OCI-LY10
T1 sequence (Q9NWZ3 1-460): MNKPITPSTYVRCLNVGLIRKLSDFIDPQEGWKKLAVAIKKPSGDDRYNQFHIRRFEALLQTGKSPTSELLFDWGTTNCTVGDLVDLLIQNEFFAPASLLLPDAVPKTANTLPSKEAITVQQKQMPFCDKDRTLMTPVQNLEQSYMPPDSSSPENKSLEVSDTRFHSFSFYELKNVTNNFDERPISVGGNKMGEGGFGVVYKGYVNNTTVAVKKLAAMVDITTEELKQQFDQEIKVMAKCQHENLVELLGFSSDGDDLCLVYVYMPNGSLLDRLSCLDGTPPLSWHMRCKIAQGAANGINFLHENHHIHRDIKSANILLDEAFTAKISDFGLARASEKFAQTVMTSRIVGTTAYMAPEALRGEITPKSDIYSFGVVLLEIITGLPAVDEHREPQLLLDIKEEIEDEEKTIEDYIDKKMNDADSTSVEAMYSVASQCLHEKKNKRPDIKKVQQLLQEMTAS
Assay: IRAK4 MSD Degradation in OCI-LY10
Assay type: cell-based
Conditions: OCI-LY10 cells, Meso Scale Discovery, incubated 4 to 24 hours
Procedure, shortened: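 IRAK4 degradation was quantified by Meso Scale electrochemiluminescence (anti-IRAK4 capture and detection antibodies) in lysates of treated OCI-LY10 cells. Compounds were dosed at 8 concentrations (1:3 dilutions, top 1 to 10 μM) for 4 to 24 h; DC50 derived by three-parameter logistic fitting.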

Structure (SMILES) | DC50
CC(C)Nc1cc(-n2ccc3cc(C#N)cnc32)ncc1C(=O)NC[C@H]1CC[C@H](CN2CCC(c3cccc4c3n(C)c(=O)n4C3CCC(=O)NC3=O)CC2)CC1 (stereo partly shown) [I-85] | 50 to 100 nM
COc1cc2nn([C@H]3CC[C@H](CN4CCC(c5ccc6c(N7CCC(=O)NC7=O)cncc6c5)CC4)CC3)cc2cc1NC(=O)c1cncc(C#N)c1 [I-122] | 100 to 200 nM
O=C1CCN(c2cncc3c(N4CCN(C[C@H]5CC[C@H](n6cc7cc(NC(=O)c8cccc(C(F)(F)F)n8)c(Cl)cc7n6)CC5)CC4)cccc23)C(=O)N1 [I-358] | 10 to 50 nM
CC(C)Nc1cc(-n2ccc3cc(C#N)cnc32)ncc1C(=O)NC[C@H]1CC[C@H](CN(C)C2CCN(c3cccc4c3n(C)c(=O)n4C3CCC(=O)NC3=O)CC2)CC1 (stereo partly shown) [I-84] | 50 to 100 nM
COc1cc2nn([C@H]3CC[C@H](CN4CCC(c5cccc6c(N7CCC(=O)NC7=O)cncc56)CC4)CC3)cc2cc1NC(=O)c1cncc(C#N)c1 [I-121] | 10 to 50 nM
CC(C)Nc1cc(-n2ccc3cc(F)cnc32)ncc1C(=O)N[C@H]1CC[C@H](CN2CCN(c3ccc4c(c3)n(C)c(=O)n4C3CCC(=O)NC3=O)CC2)CC1 (stereo partly shown) [I-267] | > 200 nM
Cc1nc(C(=O)Nc2cc3cn([C@H]4CC[C@H](CN(C)C5CCN(c6cccc7c6n(C)c(=O)n7C6CCC(=O)N(C)C6=O)CC5)CC4)nc3cc2C(C)(C)O)co1 (stereo partly shown) [I-61] | > 200 nM
COc1cc2nn([C@H]3CC[C@H](CN4CCN(c5cccc6c(N7CCC(=O)NC7=O)ncnc56)CC4)CC3)cc2cc1NC(=O)c1cccc(C(F)(F)F)n1 [I-380] | 10 to 50 nM
CN(C[C@H]1CC[C@H](n2cc3cc(NC(=O)c4cncc(C#N)c4)c(OC(F)(F)F)cc3n2)CC1)C1CCN(c2cccc3c2n(C)c(=O)n3C2CCC(=O)NC2=O)CC1 (stereo partly shown) [I-249] | > 200 nM
CC(C)(O)c1cc2nc([C@H]3CC[C@H](CN4CC5(CC(CCNc6cccc7c6C(=O)N(C6CCC(=O)NC6=O)C7=O)C5)C4)CC3)sc2cc1NC(=O)c1cncc(C#N)c1 (stereo partly shown) [I-461] | 10 to 50 nM
COc1ccc2c(c1N1CCN(C[C@H]3CC[C@H](NC(=O)c4cnc(-n5ccc6cc(C#N)cnc65)cc4NC(C)C)CC3)CC1)n(C)c(=O)n2C1CCC(=O)NC1=O (stereo partly shown) [I-391] | 10 to 50 nM
Cc1cc2nn([C@H]3CC[C@H](CN4CCN(c5cccc6c5n(C)c(=O)n6[C@H]5CCC(=O)NC5=O)CC4)CC3)cc2cc1NC(=O)c1cccc(C(F)(F)F)n1 [I-399, N-[2-[4-[[4-[1-[(3S)-2,6-dioxo-3-piperidyl]-3-methyl-2-oxo-benzimidazol-4-yl]piperazin-1-yl]methyl]cyclohexyl]-6-methyl-indazol-5-yl]-6-(trifluoromethyl)pyridine-2-carboxamide] | 10 to 50 nM
CC(C)(O)c1cc2nc([C@H]3CC[C@H](CN4CCN(CCNc5cccc6c5C(=O)N(C5CCC(=O)NC5=O)C6=O)CC4)CC3)sc2cc1NC(=O)c1cncc(C#N)c1 (stereo partly shown) [I-453] | 100 to 200 nM
COc1cc2nn([C@H]3CC[C@H](CN4CCC(c5cccc6c5n(C)c(=O)n6C5CCC(=O)NC5=O)CC4)CC3)cc2cc1NC(=O)c1cnc(C)c(Cl)c1 (stereo partly shown) [I-134] | > 200 nM
Cn1c(=O)n(C2CCC(=O)NC2=O)c2cccc(C3CCN(C[C@H]4CC[C@H](n5cc6cc(NC(=O)c7cccc(C(F)(F)F)n7)c(C#N)cc6n5)CC4)CC3)c21 (stereo partly shown) [I-189] | < 10 nM
COc1cc2nc([C@H]3CC[C@H](CN(C)CCNc4cccc5c4C(=O)N(C4CCC(=O)NC4=O)C5=O)CC3)sc2cc1NC(=O)c1cncc(F)c1 (stereo partly shown) [I-481] | > 200 nM
CC(C)Nc1c(C(=O)N[C@H]2CC[C@H](CN3CCC(c4cccc5c(N6CCC(=O)NC6=O)cncc45)CC3)CC2)cnc2c1Oc1ccc(C#N)cc1O2 [I-310] | > 200 nM
Cn1c(=O)n(C2CCC(=O)NC2=O)c2cccc(N3CCN(C[C@H]4CC[C@H](n5cc6cc(NC(=O)c7cccc(C(F)(F)F)n7)c(N7C[C@@H]8C[C@H]7CO8)cc6n5)CC4)CC3)c21 (stereo partly shown) [I-383] | < 10 nM
CC(C)Nc1cc(-n2ccc3cc(C#N)cnc32)ncc1C(=O)N[C@H]1CC[C@H](CN(C)C2CCN(c3cccc4c3n(C)c(=O)n4C3CCC(=O)NC3=O)CC2)CC1 (stereo partly shown) [I-118] | < 10 nM
O=C1CCN(c2cncc3c(N4CCN(C[C@H]5CC[C@H](n6cc7cc(NC(=O)c8cccc(C(F)(F)F)n8)c(C(F)F)cc7n6)CC5)CC4)cccc23)C(=O)N1 [I-371] | < 10 nM
CN(C[C@H]1CC[C@H](n2cc3cc(NC(=O)C4CC4)c(C(C)(C)O)cc3n2)CC1)C1CCN(Cc2cccc3c2n(C)c(=O)n3C2CCC(=O)NC2=O)CC1 (stereo partly shown) [I-1] | > 200 nM
COc1cc2nn([C@H]3CC[C@H](CN4CCCN(c5cccc6c(N7CCC(=O)NC7=O)cncc56)CC4)CC3)cc2cc1NC(=O)c1cncc(C#N)c1 [I-289] | > 200 nM
COc1cc(NC(=O)c2cccc(C(F)(F)F)n2)cc2cn([C@H]3CC[C@H](CN4CCC(c5cccc6c5n(C)c(=O)n6C5CCC(=O)NC5=O)CC4)CC3)nc12 (stereo partly shown) [I-176] | < 10 nM
Cn1c(=O)n(C2CCC(=O)NC2=O)c2cccc(N3C[C@@H]4C[C@H]3CN4C[C@H]3CC[C@H](n4cc5cc(NC(=O)c6cccc(C(F)(F)F)n6)ccc5n4)CC3)c21 (stereo partly shown) [I-423] | < 10 nM
Cn1c(=O)n(C2CCC(=O)NC2=O)c2cccc(N3CCN(C[C@H]4CC[C@H](n5cc6cc(NC(=O)c7cccc(C(F)(F)F)n7)c([S+](C)[O-])cc6n5)CC4)CC3)c21 (stereo partly shown) [I-308] | < 10 nM
Cn1c(=O)n(C2CCC(=O)NC2=O)c2cccc(N3CCN(C[C@H]4CC[C@H](n5cc6cc(NC(=O)c7cccc(C(F)(F)F)n7)c(C7CC7)cc6n5)CC4)CC3)c21 (stereo partly shown) [I-296] | 10 to 50 nM
CC(C)Nc1cc(-c2ccc3cc(C#N)cnn23)ncc1-c1cn([C@H]2CC[C@H](CN3CCN(c4cccc5c4n(C)c(=O)n5C4CCC(=O)NC4=O)CC3)CC2)nn1 (stereo partly shown) [I-411] | 10 to 50 nM
COc1cc2nn([C@H]3CC[C@H](CN(C)C4CCN(c5cccc6c(N7CCC(=O)NC7=O)cncc56)CC4)CC3)cc2cc1NC(=O)c1cccc(C(F)(F)F)n1 [I-96] | < 10 nM
COc1cc2nn([C@H]3CC[C@@H](CN4CCN(CC#Cc5cccc6c5n(C)c(=O)n6C5CCC(=O)NC5=O)CC4)CC3)cc2cc1NC(=O)c1cccc(C(F)(F)F)n1 (stereo partly shown) [I-327] | < 10 nM

The next lines start with the values.

DC50 | Structure (SMILES)
< 10 nM | COc1cc2nn([C@H]3CC[C@H](CN4C[C@@H]5C[C@H]4CN5c4cccc5c4n(C)c(=O)n5C4CCC(=O)NC4=O)CC3)cc2cc1NC(=O)c1cccc(C(F)(F)F)n1 (stereo partly shown) [I-168]
< 10 nM | COc1cc2nn([C@H]3CC[C@H](CN4CC5(CCN(c6cccc7c6n(C)c(=O)n7C6CCC(=O)NC6=O)CC5)C4)CC3)cc2cc1NC(=O)c1cncc(C#N)c1 (stereo partly shown) [I-206]
< 10 nM | Cn1c(=O)n(C2CCC(=O)NC2=O)c2cccc(N3CCN(C[C@H]4CC[C@H](n5cc6cc(NC(=O)c7cccc(C(F)(F)F)n7)ccc6n5)CC4)CC3)c21 (stereo partly shown) [I-209]
< 10 nM | COc1cncc(C(=O)Nc2cc3cn([C@H]4CC[C@H](CN5CCN(c6cccc7c6n(C)c(=O)n7C6CCC(=O)NC6=O)CC5)CC4)nc3cc2OC)c1 (stereo partly shown) [I-287]
< 10 nM | COc1cc2nn([C@H]3CC[C@H](CN4CCN(c5cc(F)cc6c(N7CCC(=O)NC7=O)cncc56)CC4)CC3)cc2cc1NC(=O)c1cccc(C(F)(F)F)n1 [I-413]
< 10 nM | COc1cc2nn([C@H]3CC[C@H](CN(C)C4CCN(c5cccc6c5n(C)c(=O)n6C5CCC(=O)NC5=O)CC4)CC3)cc2cc1NC(=O)c1cncc(F)c1 (stereo partly shown) [I-81]
< 10 nM | CN(CCCCNc1cccc2c1C(=O)N(C1CCC(=O)NC1=O)C2=O)C[C@H]1CC[C@H](c2nc3cc(C(C)(C)O)c(NC(=O)c4cccc(C(F)(F)F)n4)cc3s2)CC1 (stereo partly shown) [I-447]
< 10 nM | COc1cc2nn([C@H]3CC[C@H](CN4CCC(c5ccc(F)c6c5n(C)c(=O)n6C5CCC(=O)NC5=O)CC4)CC3)cc2cc1NC(=O)c1cccc(C(F)(F)F)n1 (stereo partly shown) [I-51]
< 10 nM | COc1cc2nn([C@H]3CC[C@H](CN4CCN(c5cccc6c5n(C)c(=O)n6C5CCC(=O)NC5=O)CC4)CC3)cc2cc1NC(=O)c1cncc(C)c1 (stereo partly shown) [I-365]
< 10 nM | CC(C)(O)c1cc2nn([C@H]3CC[C@H](CN4C[C@H]5C[C@@H]4CN5c4cccc5c(N6CCC(=O)NC6=O)cncc45)CC3)cc2cc1NC(=O)c1cccc(C(F)(F)F)n1 [I-229]
< 10 nM | COc1cc2nn([C@H]3CC[C@H](CN4CCN(c5cccc6c5n(C)c(=O)n6C5CCC(=O)NC5=O)CC4)CC3)cc2cc1NC(=O)c1cccc(C(F)(F)F)c1F (stereo partly shown) [I-216]
< 10 nM | Cn1c(=O)n(C2CCC(=O)NC2=O)c2cccc(C3CCN(C[C@H]4CC[C@H](n5cc6cc(NC(=O)c7cccc(C(F)(F)F)n7)cc(F)c6n5)CC4)CC3)c21 (stereo partly shown) [I-240]
< 10 nM | Cn1c(=O)n(C2CCC(=O)NC2=O)c2cccc(N3CCN(C[C@H]4CC[C@H](n5cc6cc(NC(=O)c7cccc(C(F)(F)F)n7)c(C#N)cc6n5)CC4)CC3)c21 (stereo partly shown) [I-363]
< 10 nM | COc1cc2nn([C@H]3CC[C@H](CN4CCC(c5c(C)ccc6c5n(C)c(=O)n6C5CCC(=O)NC5=O)CC4)CC3)cc2cc1NC(=O)c1cncc(Cl)c1 (stereo partly shown) [I-110]
< 10 nM | CN(C[C@H]1CC[C@H](n2cc3cc(NC(=O)c4cccc(C(F)(F)F)n4)c(C(C)(C)O)cc3n2)CC1)C1CCN(c2cccc3c(N4CCC(=O)NC4=O)cncc23)CC1 [I-66]
< 10 nM | Cn1c(=O)n(C2CCC(=O)NC2=O)c2cccc(C3CCN(C[C@H]4CC[C@H](n5cc6cc(NC(=O)c7cccc(C(F)(F)F)n7)c(C7CC7)cc6n5)CC4)CC3)c21 (stereo partly shown) [I-69]
< 10 nM | COc1cc2nn([C@H]3CC[C@H](CN4[C@@H]5C[C@H]4CN(c4cccc6c4n(C)c(=O)n6C4CCC(=O)NC4=O)C5)CC3)cc2cc1NC(=O)c1cccc(C(F)(F)F)n1 (stereo partly shown) [I-158]
